SMILES strings stand for the structures. Read-outs that look alike come from different tables or passages of the source.

For one assay, the system named is A2780 cells. Put plainly: In-vitro cell proliferation assay (SRB), A2780 cells. Type of assay: cell-based. The following applies: Homo sapiens, A2780, 72 h, A2780 cells, 72 hours, read-out: A2780 IC50. The procedure, abridged: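 Read-out is SRB absorbance at 570 nm on TCA-fixed cells after 72 hours of compound treatment at 37° C. in 5% CO2. Background from a media-only plate is subtracted, and % inhibition is interpolated between two tested concentrations.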

Another assay deals with T1, NAMPT (Homo sapiens, UniProt P43490).
T1 construct: His tag; host or cells: E. coli
As to the kind of experiment: Biochemical inhibition assay: NAMPT enzymatic reaction, NMN quantified by mass spectrometry. Conditions: read-out: Biochem IC50. The procedure, abridged:
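Inhibition of E. coli-expressed His-tagged human NAMPT, measured as NMN formation by mass spectrometry after a 30 min room-temperature reaction containing 1 μM NAM, 100 μM PRPP and 2.5 mM ATP.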

T1 sequence (P43490 whole entry): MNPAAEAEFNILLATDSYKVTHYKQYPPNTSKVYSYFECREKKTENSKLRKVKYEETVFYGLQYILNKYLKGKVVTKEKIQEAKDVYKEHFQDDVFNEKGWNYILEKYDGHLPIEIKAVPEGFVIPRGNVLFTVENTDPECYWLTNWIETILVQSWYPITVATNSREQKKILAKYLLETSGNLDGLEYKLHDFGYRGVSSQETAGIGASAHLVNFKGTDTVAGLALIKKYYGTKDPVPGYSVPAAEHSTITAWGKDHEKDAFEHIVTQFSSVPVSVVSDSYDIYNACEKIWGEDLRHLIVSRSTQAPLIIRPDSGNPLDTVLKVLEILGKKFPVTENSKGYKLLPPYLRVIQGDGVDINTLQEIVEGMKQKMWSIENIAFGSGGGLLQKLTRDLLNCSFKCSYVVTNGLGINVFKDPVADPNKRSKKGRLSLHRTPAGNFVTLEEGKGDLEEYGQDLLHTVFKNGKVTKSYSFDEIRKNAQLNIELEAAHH

The term IC50 denotes the concentration at which inhibition is half-maximal. For `CNS(=O)(=O)c1ccccc1S(=O)(=O)c1ccc(CNC(=O)c2cc3cnccc3[nH]2)cc1` [N-[(4-{[2-(methylsulfamoyl)benzene]sulfonyl}phenyl)methyl]-1H-pyrrolo[3,2-c]pyridine-2-carboxamide], the IC50 worked out at 202 nM in the assay on A2780 cells (SRB assay) and 76 nM at NAMPT (NAMPT enzymatic reaction).
As for `O=C(NCc1ccc(S(=O)(=O)c2ccc(Cl)cc2)cc1)c1cnc2nccn2c1`, the IC50 is 23.6 nM in the assay with A2780 cells (SRB) and 2.5 nM at NAMPT (NAMPT enzymatic reaction).
For the compound `Cn1cc(S(=O)(=O)c2ccc(CNC(=O)c3cnc4[nH]ncc4c3)cc2)cn1` [N-{[4-(1-methyl-1H-pyrazole-4-sulfonyl)phenyl]methyl}-1H-pyrazolo[3,4-b]pyridine-5-carboxamide], the figures for the IC50 with A2780 cells (SRB) and on NAMPT (NAMPT enzymatic assay) were 100 to 1000 nM and 182 nM, respectively.
As for `Cc1cccc(S(=O)(=O)c2ccc(CNC(=O)c3cc4ccncc4s3)cc2)c1F`, the IC50 with A2780 cells (SRB) was determined as 3.3 nM; on NAMPT (NAMPT enzymatic reaction), 10.7 nM.
Turning to `COc1ccc(Cl)c(S(=O)(=O)c2ccc(CNC(=O)c3cnc4[nH]ncc4c3)cc2)c1` [N-({4-[(2-chloro-5-methoxybenzene)sulfonyl]phenyl}methyl)-1H-pyrazolo[3,4-b]pyridine-5-carboxamide], the IC50 in the assay with A2780 cells (SRB) was 66.8 nM; at NAMPT (NAMPT enzymatic reaction), 24.7 nM.
Regarding `Cc1cc(C(F)(F)F)ccc1S(=O)(=O)c1ccc(CNC(=O)c2cc3ccncc3o2)cc1`, the results for the IC50 in the assay with A2780 cells (SRB) and on NAMPT (NAMPT enzymatic assay) were 63.1 nM and 34.5 nM, respectively.
For the compound `COc1ccc(S(=O)(=O)c2ccc(CNC(=O)c3cnc4[nH]ncc4c3)cc2)cc1OC`, the IC50 turned out to be 5.6 nM with A2780 cells (SRB) and 20.6 nM at NAMPT (NAMPT enzymatic reaction).
With `CCc1ccc(S(=O)(=O)c2ccc(CNC(=O)c3cc4ccncc4s3)cc2)cc1` [N-({4-[(4-ethylbenzene)sulfonyl]phenyl}methyl)thieno[2,3-c]pyridine-2-carboxamide], the IC50 worked out at 7.8 nM in the assay with A2780 cells (SRB assay) and 6 nM on NAMPT (NAMPT enzymatic reaction).
As to `CCOc1cc(F)ccc1S(=O)(=O)c1ccc(CNC(=O)c2cc3cnccc3[nH]2)cc1` [N-({4-[(2-ethoxy-4-fluorobenzene)sulfonyl]phenyl}methyl)-1H-pyrrolo[3,2-c]pyridine-2-carboxamide], the IC50 in the assay on A2780 cells (SRB) worked out at 1.8 nM; on NAMPT (NAMPT enzymatic reaction) it was 3.4 nM.
For `NS(=O)(=O)c1cccc(S(=O)(=O)c2ccc(CNC(=O)c3cc4ccncc4s3)cc2)c1`, the IC50 came to 12.1 nM in the assay with A2780 cells (SRB) and 2 nM at NAMPT (NAMPT enzymatic reaction).
As for `COc1ccc(C(C)(C)C)cc1S(=O)(=O)c1ccc(CNC(=O)c2ccc3nccn3c2)cc1` [N-({4-[(5-tert-butyl-2-methoxybenzene)sulfonyl]phenyl}methyl)imidazo[1,2-a]pyridine-6-carboxamide], the IC50 with A2780 cells (SRB) worked out at 6.77 nM; at NAMPT (NAMPT enzymatic assay), 29 nM.
Regarding `CCCCc1ccc(S(=O)(=O)c2ccc(CNC(=O)c3cc4ccncc4s3)cc2)cc1`, the IC50 in the assay with A2780 cells (SRB) was found to be 26 nM; at NAMPT (NAMPT enzymatic reaction) it was 2.9 nM.
In the case of `COc1c(F)cccc1S(=O)(=O)c1ccc(CNC(=O)c2cc3ccncc3s2)cc1`, the IC50 in the assay on A2780 cells (SRB) stood at 12.5 nM; at NAMPT (NAMPT enzymatic reaction) it was 13.3 nM.
For `CCCCOc1ccc(Cl)cc1S(=O)(=O)c1ccc(CNC(=O)c2cnc3nccn3c2)cc1` the same measures were 62.8 nM and 3.7 nM.
As to `Cc1cc(C)n(-c2cccc(S(=O)(=O)c3ccc(CNC(=O)c4cc5cnccc5[nH]4)cc3)c2)n1`, the values for the IC50 with A2780 cells (SRB) and at NAMPT (NAMPT enzymatic assay) were 1.6 nM and 13.2 nM, respectively.
For `CC(C)COc1ccc(S(=O)(=O)c2ccc(CNC(=O)c3ccc4nccn4c3)cc2)cc1` the same measures were 2.7 nM and 2.2 nM.
For `COc1ccc(OC(F)(F)F)cc1S(=O)(=O)c1ccc(CNC(=O)c2cnc3[nH]ncc3c2)cc1` the same measures were 24.6 nM and 92.6 nM.
As to `COc1ccc(Cl)cc1S(=O)(=O)c1ccc(CNC(=O)c2cnc3nccn3c2)cc1`, the IC50 with A2780 cells (SRB) is 6.1 nM; on NAMPT (NAMPT enzymatic reaction), 5.5 nM.
With `O=C(NCc1ccc(S(=O)(=O)c2cccc(OCC(F)(F)F)c2)cc1)c1cnc2nccn2c1`, the IC50 worked out at 11.4 nM in the assay with A2780 cells (SRB) and 5.5 nM on NAMPT (NAMPT enzymatic assay).
For `Cc1cc(S(=O)(=O)c2ccc(CNC(=O)c3cc4cnccc4[nH]3)cc2)c(C)cc1F`, the IC50 with A2780 cells (SRB) was found to be 12.8 nM; at NAMPT (NAMPT enzymatic reaction) it was 51.4 nM.
For `Cc1ccc(Cl)c(S(=O)(=O)c2ccc(CNC(=O)c3cc4ccncc4o3)cc2)c1F` [N-({4-[(6-chloro-2-fluoro-3-methylbenzene)sulfonyl]phenyl}methyl)furo[2,3-c]pyridine-2-carboxamide], the IC50 came out at 29.3 nM in the assay with A2780 cells (SRB) and 21.9 nM at NAMPT (NAMPT enzymatic assay).
In the case of `CS(=O)(=O)c1ccccc1S(=O)(=O)c1ccc(CNC(=O)c2cc3ccncc3o2)cc1`, the IC50 in the assay on A2780 cells (SRB) was 100 to 1000 nM; on NAMPT (NAMPT enzymatic reaction), 54.2 nM.
In the case of `O=C(NCc1ccc(S(=O)(=O)c2ccccc2C(F)(F)F)cc1)c1cc2ccncc2s1` [N-[(4-{[2-(trifluoromethyl)benzene]sulfonyl}phenyl)methyl]thieno[2,3-c]pyridine-2-carboxamide], the IC50 with A2780 cells (SRB assay) was 26 nM; on NAMPT (NAMPT enzymatic reaction), 13 nM.
Consider `Cc1cccc(S(=O)(=O)c2ccc(CNC(=O)c3cc4ccncc4o3)cc2)c1` [N-({4-[(3-methylbenzene)sulfonyl]phenyl}methyl)furo[2,3-c]pyridine-2-carboxamide], for which the IC50 was found to be 5.3 nM in the assay with A2780 cells (SRB) and 2.3 nM on NAMPT (NAMPT enzymatic reaction).
In the case of `O=C(NCc1ccc(S(=O)(=O)c2cccc(N3CCCCC3)c2)cc1)c1ccc2nccn2c1`, the IC50 in the assay on A2780 cells (SRB) is 3.4 nM; at NAMPT (NAMPT enzymatic assay) it was 11.4 nM.
As for `Cc1nc(S(=O)(=O)c2ccc(CNC(=O)c3cc4ccncc4o3)cc2)cs1` [N-{[4-(2-methyl-1,3-thiazole-4-sulfonyl)phenyl]methyl}furo[2,3-c]pyridine-2-carboxamide], the IC50 with A2780 cells (SRB) is 69 nM; on NAMPT (NAMPT enzymatic assay), 36.7 nM.
As to `O=C(NCc1ccc(S(=O)(=O)c2ccc(CO)cc2)cc1)c1cc2ccncc2s1` [N-[(4-{[4-(hydroxymethyl)benzene]sulfonyl}phenyl)methyl]thieno[2,3-c]pyridine-2-carboxamide], the IC50 with A2780 cells (SRB) was 6.6 nM; at NAMPT (NAMPT enzymatic assay), 3.8 nM.
As to `CCCCOc1ccc(Cl)cc1S(=O)(=O)c1ccc(CNC(=O)c2cc3ccncc3o2)cc1`, the IC50 with A2780 cells (SRB) worked out at 66.3 nM; at NAMPT (NAMPT enzymatic reaction), 24.3 nM.
For `CCCOc1ccc(S(=O)(=O)c2ccc(CNC(=O)c3cnc4nccn4c3)cc2)cc1Cl` the same measures were 2.4 nM and 3.9 nM.
Take `Cc1ccc(F)cc1S(=O)(=O)c1ccc(CNC(=O)c2cnc3nccn3c2)cc1`: the 50% inhibitory concentration (IC50) with A2780 cells (SRB) was determined as 35.1 nM; at NAMPT (NAMPT enzymatic assay), 2.7 nM.
In the case of `O=C(NCc1ccc(S(=O)(=O)c2cccc(C(F)(F)F)c2)cc1)c1cc2ccncc2o1`, the IC50 was determined as 4.8 nM with A2780 cells (SRB) and 5.4 nM on NAMPT (NAMPT enzymatic assay).
For `O=C(NCc1ccc(S(=O)(=O)c2cncc(F)c2)cc1)c1ccc2nccn2c1` [N-{[4-(5-fluoropyridine-3-sulfonyl)phenyl]methyl}imidazo[1,2-a]pyridine-6-carboxamide] the same measures were 13.7 nM and 27.8 nM.
On the same counts, the results for `O=C(NCc1ccc(S(=O)(=O)c2cc(F)ccc2CO)cc1)c1cc2ccncc2s1` are 24.9 nM and 7.7 nM.
For `O=C(NCc1ccc(S(=O)(=O)Nc2ccc(Cl)cc2OC(F)(F)F)cc1)c1cc2cnccc2[nH]1` [N-[(4-{[4-chloro-2-(trifluoromethoxy)phenyl]sulfamoyl}phenyl)methyl]-1H-pyrrolo[3,2-c]pyridine-2-carboxamide], the IC50 in the assay with A2780 cells (SRB assay) and at NAMPT (NAMPT enzymatic reaction) was 2 nM throughout.
